Measurements: ChEMBL document CHEMBL1201862, “PubChem BioAssay data set” (2004)
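Dose response: 5 concentrations. Exposure: 48 h. Format: 96-well plates. Endpoint: linear interpolation; highest concentration if not reached. The concentration for 50% growth inhibition is given as GI50.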 Active and inactive are the calls of the source. Cut-off read from the data, not from the text of the source: active = GI50 up to about 1.1 µM and inactive = higher.

Legend:
Assay in all cases: growth of human tumour cells (NCI), 48 h
DU-145 = test system: DU-145
SK-MEL-5 = test system: SK-MEL-5
HCT-15 = test system: HCT-15
KM12 = test system: KM12
SN12C = test system: SN12C
PC-3 = test system: PC-3
CAKI-1 = test system: CAKI-1
RPMI-8226 = test system: RPMI-8226
HOP-62 = test system: HOP-62
SF-268 = test system: SF-268
UO-31 = test system: UO-31
SNB-19 = test system: SNB-19
A498 = test system: A498
M14 = test system: M14
SK-MEL-2 = test system: SK-MEL-2
NCI-H460 = test system: NCI-H460
U-251 = test system: U-251
OVCAR-3 = test system: OVCAR-3
UACC-62 = test system: UACC-62
MDA-MB-231 = test system: MDA-MB-231

Row | Compound | GI50 (DU-145) | GI50 (SK-MEL-5) | GI50 (HCT-15) | GI50 (KM12) | GI50 (SN12C) | GI50 (PC-3) | GI50 (CAKI-1) | GI50 (RPMI-8226) | GI50 (HOP-62) | GI50 (SF-268) | GI50 (UO-31) | GI50 (SNB-19) | GI50 (A498) | GI50 (M14) | GI50 (SK-MEL-2) | GI50 (NCI-H460) | GI50 (U-251) | GI50 (OVCAR-3) | GI50 (UACC-62) | GI50 (MDA-MB-231)
1 | Cc1cccc2nc3cccc(C(=O)NCCC[N+](C)(CCCNC(=O)c4cccc5nc6cccc(C)c6nc45)Cc4c([N+](=O)[O-])ncn4C)c3nc12 | 0.881 µM (active) | 1.95 µM (inactive) | 0.82 µM | 0.0912 µM (active) | 0.378 µM (active) | 1.46 µM (inactive) | 0.659 µM (active) | 0.0436 µM (active) | 0.993 µM (active) | 2.43 µM (inactive) | 0.726 µM (active) | > 1100 µM (inactive) | 0.979 µM (active) | 9.68 µM (inactive) | 6.95 µM (inactive) | 0.0632 µM (active) | 0.377 µM (active) | 22 µM (inactive) | 0.853 µM (active) | 38.3 µM (inactive)
2 | N#Cc1nc(-c2ccsc2)oc1N | > 100 µM (inactive) | > 100 µM (inactive) | > 100 µM | > 100 µM (inactive) | > 100 µM (inactive) | > 100 µM (inactive) | > 100 µM (inactive) | 77.4 µM (inactive) | > 100 µM (inactive) | > 100 µM (inactive) | 64.1 µM (inactive) | > 100 µM (inactive) | > 100 µM (inactive) | > 100 µM (inactive) | > 100 µM (inactive) | – | > 100 µM (inactive) | – | > 100 µM (inactive) | > 100 µM (inactive)
3 | C#C[C@@]1(O)CCCC2=CC3(CC[C@]21C)SCCS3 | > 100 µM (inactive) | > 100 µM (inactive) | > 100 µM | > 100 µM (inactive) | > 100 µM (inactive) | > 100 µM (inactive) | – | > 100 µM (inactive) | > 100 µM (inactive) | > 100 µM (inactive) | > 100 µM (inactive) | > 100 µM (inactive) | > 100 µM (inactive) | > 100 µM (inactive) | > 100 µM (inactive) | > 100 µM (inactive) | > 100 µM (inactive) | > 100 µM (inactive) | > 100 µM (inactive) | > 100 µM (inactive)
4 | CCOC(=O)Nc1nn[nH]c1Cl | > 100 µM (inactive) | > 100 µM (inactive) | > 100 µM | 63 µM (inactive) | > 100 µM (inactive) | > 100 µM (inactive) | > 100 µM (inactive) | > 100 µM (inactive) | > 100 µM (inactive) | > 100 µM (inactive) | > 100 µM (inactive) | – | > 100 µM (inactive) | > 100 µM (inactive) | > 100 µM (inactive) | > 100 µM (inactive) | > 100 µM (inactive) | > 100 µM (inactive) | > 100 µM (inactive) | > 100 µM (inactive)
5 | Cc1ccccc1NC(=O)C(=O)Cc1cnc2ccccc2n1 | > 100 µM (inactive) | > 100 µM (inactive) | > 100 µM | > 100 µM (inactive) | > 100 µM (inactive) | > 100 µM (inactive) | > 100 µM (inactive) | > 100 µM (inactive) | – | > 100 µM (inactive) | > 100 µM (inactive) | > 100 µM (inactive) | > 100 µM (inactive) | > 100 µM (inactive) | > 100 µM (inactive) | > 100 µM (inactive) | > 100 µM (inactive) | > 100 µM (inactive) | > 100 µM (inactive) | > 100 µM (inactive)
6 | COc1ccc2c(c1)C(N)CC2=O (stereo unspecified) | > 100 µM (inactive) | > 100 µM (inactive) | > 100 µM | > 100 µM (inactive) | > 100 µM (inactive) | 18.9 µM (inactive) | > 100 µM (inactive) | > 100 µM (inactive) | > 100 µM (inactive) | > 100 µM (inactive) | > 100 µM (inactive) | > 100 µM (inactive) | > 100 µM (inactive) | > 100 µM (inactive) | 27 µM (inactive) | – | > 100 µM (inactive) | > 100 µM (inactive) | > 100 µM (inactive) | > 100 µM (inactive)
7 | CCN(CC)CCCC(C)NC(=O)c1cc(-c2nccn2C)nc2ccc(C)cc12 (stereo unspecified) | > 100 µM (inactive) | > 100 µM (inactive) | > 100 µM | > 100 µM (inactive) | > 10 µM (inactive) | > 100 µM (inactive) | > 100 µM (inactive) | > 100 µM (inactive) | > 100 µM (inactive) | > 100 µM (inactive) | > 100 µM (inactive) | > 100 µM (inactive) | > 100 µM (inactive) | > 100 µM (inactive) | > 100 µM (inactive) | 33 µM (inactive) | > 100 µM (inactive) | – | > 100 µM (inactive) | > 100 µM (inactive)
8 | COc1ccc(-n2c3c(c4cc(O)ccc42)Cc2ccccc2C3=O)cc1 | > 100 µM (inactive) | 39.2 µM (inactive) | 25.1 µM | 28.8 µM (inactive) | 57.3 µM (inactive) | 2.2 µM (inactive) | 30.2 µM (inactive) | 3.76 µM (inactive) | 42.7 µM (inactive) | 26.6 µM (inactive) | > 100 µM (inactive) | > 100 µM (inactive) | 90.6 µM (inactive) | 38.2 µM (inactive) | 65.3 µM (inactive) | 16.1 µM (inactive) | 45.2 µM (inactive) | 21.4 µM (inactive) | 48.5 µM (inactive) | 20.1 µM (inactive)
9 | CN(C)c1ccc(C(=NNC(=O)c2cc3ccccc3[nH]2)c2ccc(N(C)C)cc2)cc1 | 1.39 µM (inactive) | 0.407 µM (active) | 0.156 µM | 0.33 µM (active) | 1.35 µM (inactive) | 0.598 µM (active) | 0.971 µM (active) | 0.321 µM (active) | 1.77 µM (inactive) | 0.433 µM (active) | 0.942 µM (active) | 0.625 µM (active) | 1.05 µM (active) | 0.185 µM (active) | 0.171 µM (active) | 0.348 µM (active) | 0.348 µM (active) | 0.276 µM (active) | 0.409 µM (active) | 0.457 µM (active)
10 | COC(=O)c1c(O)ccc2c1c1c(n2Cc2ccccc2OC)C(=O)c2ccccc2C1=O | 13.3 µM (inactive) | 13.1 µM (inactive) | 5.16 µM | 9.75 µM (inactive) | 10 µM (inactive) | 10.4 µM (inactive) | 15.8 µM (inactive) | 1.86 µM (inactive) | 13.6 µM (inactive) | 11.6 µM (inactive) | 5.42 µM (inactive) | 27.2 µM (inactive) | 40 µM (inactive) | 8.45 µM (inactive) | 13.9 µM (inactive) | 3.78 µM (inactive) | 11 µM (inactive) | 10 µM (inactive) | – | 13.5 µM (inactive)
11 | Clc1nc(NCCc2ccccc2)c2ncn(-c3ccccc3)c2n1 | 25.2 µM (inactive) | 18.5 µM (inactive) | 25.5 µM | 16.8 µM (inactive) | 27.5 µM (inactive) | 16.1 µM (inactive) | 7.83 µM (inactive) | 18.5 µM (inactive) | 20.6 µM (inactive) | 36.5 µM (inactive) | 12.9 µM (inactive) | 37 µM (inactive) | 17.3 µM (inactive) | 21.5 µM (inactive) | 1.83 µM (inactive) | 15.3 µM (inactive) | 16.2 µM (inactive) | 25.2 µM (inactive) | 20.8 µM (inactive) | 21.8 µM (inactive)
12 | C=C(C)CCN(C(=O)OC(C)(C)C)c1cc(C(C)C)co1 | 45 µM (inactive) | 44.3 µM (inactive) | > 100 µM | 64.3 µM (inactive) | > 100 µM (inactive) | 22.4 µM (inactive) | > 100 µM (inactive) | 20.2 µM (inactive) | > 100 µM (inactive) | 0.344 µM (active) | > 100 µM (inactive) | > 100 µM (inactive) | > 100 µM (inactive) | > 100 µM (inactive) | 28.5 µM (inactive) | – | 26.7 µM (inactive) | 40.5 µM (inactive) | 86.9 µM (inactive) | > 100 µM (inactive)
13 | N#Cc1nc(CN2C(=O)c3ccccc3C2=O)oc1N | > 100 µM (inactive) | > 100 µM (inactive) | > 100 µM | > 100 µM (inactive) | > 100 µM (inactive) | > 100 µM (inactive) | > 100 µM (inactive) | > 100 µM (inactive) | > 100 µM (inactive) | > 100 µM (inactive) | – | – | > 100 µM (inactive) | > 100 µM (inactive) | > 100 µM (inactive) | > 100 µM (inactive) | > 100 µM (inactive) | > 100 µM (inactive) | – | > 100 µM (inactive)
14 | O=c1[nH]nc(Cc2ccccc2)n1/N=C/c1cccs1 | > 100 µM (inactive) | – | > 100 µM | > 100 µM (inactive) | > 100 µM (inactive) | > 100 µM (inactive) | > 100 µM (inactive) | 47.1 µM (inactive) | > 100 µM (inactive) | > 100 µM (inactive) | > 100 µM (inactive) | > 100 µM (inactive) | 16 µM (inactive) | > 100 µM (inactive) | > 100 µM (inactive) | > 100 µM (inactive) | 48 µM (inactive) | > 100 µM (inactive) | 36 µM (inactive) | 23.4 µM (inactive)
15 | O=C1Cc2c([nH]c3ccc(C(=O)O)cc23)-c2ccccc2N1 | > 100 µM (inactive) | – | > 100 µM | > 100 µM (inactive) | > 100 µM (inactive) | > 100 µM (inactive) | > 100 µM (inactive) | > 100 µM (inactive) | > 100 µM (inactive) | > 100 µM (inactive) | > 100 µM (inactive) | > 100 µM (inactive) | > 100 µM (inactive) | > 100 µM (inactive) | > 100 µM (inactive) | > 100 µM (inactive) | > 100 µM (inactive) | > 100 µM (inactive) | > 100 µM (inactive) | > 100 µM (inactive)
